Test results: ChEMBL document CHEMBL3352092, “Ferrier sulfamidoglycosylation of glycals catalyzed by nitrosonium tetrafluoroborate: towards new carbonic anhydrase glycoinhibitors” (Bioorg Med Chem, 2014)
pKi: −log10 of the molar value.

Legend:
Carbonic anhydrase 1 = Carbonic anhydrase 1 (Homo sapiens, UniProt P00915); test: Inhibition of human full length CA1 by stopped flow CO2 hydration assay
Carbonic anhydrase 9 = Carbonic anhydrase 9 (Homo sapiens, UniProt Q16790); test: Inhibition of human recombinant CA9 catalytic domain by stopped flow CO2 hydration assay
Carbonic anhydrase 2 = Carbonic anhydrase 2 (Homo sapiens, UniProt P00918); test: Inhibition of human full length CA2 by stopped flow CO2 hydration assay

Chain of Carbonic anhydrase 1 (P00915 whole entry, the tested form may be a part): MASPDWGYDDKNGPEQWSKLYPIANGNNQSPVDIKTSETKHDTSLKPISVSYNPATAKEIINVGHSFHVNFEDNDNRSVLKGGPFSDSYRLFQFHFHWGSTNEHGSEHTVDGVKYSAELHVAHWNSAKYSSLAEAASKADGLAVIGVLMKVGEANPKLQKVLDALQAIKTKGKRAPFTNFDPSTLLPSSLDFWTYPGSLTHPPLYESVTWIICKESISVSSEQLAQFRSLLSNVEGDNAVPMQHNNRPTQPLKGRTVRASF

Compound | pKi (Carbonic anhydrase 1) | pKi (Carbonic anhydrase 9) | pKi (Carbonic anhydrase 2)
CC(=O)O[C@@H]1C=CC(NS(=O)(=O)NO)O[C@H]1C (stereo partly drawn) | < 5.00 | 7.33 | 
O=S(=O)(NO)NC1C=C[C@@H](O)CO1 (stereo partly drawn) | < 5.00 | 8.05 | 
C[C@@H]1OC(NS(=O)(=O)NO)C=C[C@H]1O (stereo partly drawn) | < 5.00 | 8.10 | < 5.00
O=S(=O)(NO)NC1C=C[C@H](O)[C@@H](CO)O1 (stereo partly drawn) | < 5.00 | 8.05 | 
CC(=O)O[C@H]1C=CC(NS(=O)(=O)NO)OC1 (stereo partly drawn) | < 5.00 | 7.27 | < 5.00
CC(=O)O[C@@H]1C=CC(NS(=O)(=O)NO)OC1 (stereo partly drawn) | < 5.00 | 7.36 | < 5.00

These reach a higher pKi (Carbonic anhydrase 1). Values come first.

pKi (Carbonic anhydrase 1) | pKi (Carbonic anhydrase 9) | pKi (Carbonic anhydrase 2) | Compound
6.03 | 8.10 |  | O=S(=O)(NO)NC1C=C[C@H](O)CO1 (stereo partly drawn)
6.04 | 7.36 |  | O=S(=O)(NO)NC1C=C[C@@H](O)[C@@H](CO)O1 (stereo partly drawn)
6.12 | 7.10 |  | CC(=O)OC[C@H]1OC(NS(=O)(=O)NO)C=C[C@H]1OC(C)=O (stereo partly drawn)
6.09 | 7.05 |  | CC(=O)OC[C@H]1OC(NS(=O)(=O)NO)C=C[C@@H]1OC(C)=O (stereo partly drawn)
